According to US20210207064A1, “COMPOUND FOR RESTORING CONTAMINATED SOIL OR CONTAMINATED WATER” (FNG RESEARCH CO., LTD., priority 2018, published 2021):

Tests used:
[1] = Heavy metal removal ability test in contaminated soil around a factory (WAK-Me test kit); details: 1.0 wt % aqueous solution, colour comparison test kit
Protocol: The contaminated soil around the factory in the industrial complex was collected, pulverized, and meshed to prepare fine particles of soil samples.
Each 3 ml of aqueous solutions for restoring soil was added to soil samples and mixed for 5 minutes.

[2] = Formaldehyde (formalin) removing ability test (GC); details: 2.0% formaldehyde solution, 3 molar equivalents of compound, room temperature; for Formaldehyde GC Area, 30 min: after 30 min; for Formaldehyde GC Area, 180 min: after 180 min; for Formaldehyde GC Area, Initial: initial state
[3] = Heavy metal removal ability test in contaminated soil (ICP-MS), nickel; details: for Nickel (Ni) Adsorption amount: contaminated soil; for Nickel (Ni) Adsorption rate: relative to EDTA control
Protocol: (§1) (1) Preparation of Soil Contaminated with Heavy Metal
(§2) After collecting and pulverizing uncontaminated soil, fine particles obtained by using a mesh were mixed with the aqueous heavy metal solution to prepare soil samples contaminated with heavy metals.
(§3) Each 3 ml of the prepared aqueous solution was added to a soil sample contaminated with heavy metals and mixed for 5 minutes.
(§4) 50 ml of distilled water was added to the contaminated soil mixed with the aqueous solution for restoring soil, stirred for 20 minutes, and settled for 1 hour, and a supernatant was prepared as a sample solution.
(§5) The prepared sample solution was analyzed for the heavy metal component using an Inductively Coupled Plasma Mass Spectrometer (ICP-MS) (Xseries™ 2, Thermo Fisher Scientific, UK).
(§6) Adsorption rate of heavy metals (%)=(Adsorption amount of Embodiment/Adsorption amount of Control)×100 Equation 1

[4] = Heavy metal removal ability test in contaminated soil (ICP-MS), cadmium; details: for Cadmium (Cd) Adsorption amount: contaminated soil; for Cadmium (Cd) Adsorption rate: relative to EDTA control
Protocol: as §1, §2, §3, §4, §5, §6

[5] = Heavy metal removal ability test in contaminated soil (ICP-MS), arsenic; details: for Arsenic (As) Adsorption amount: contaminated soil; for Arsenic (As) Adsorption rate: relative to EDTA control
Protocol: as §1, §2, §3, §4, §5, §6

human skin = assay: Skin irritation test of active ingredient (patch method, CTFA guidelines); format: in vivo; details: 24 h patch; for Test result (number of subject) (+) / Test result (number of subject) (++) / Test result (number of subject) (±) / Test result (number of subject) (−): 20 people; for Test result (number of subject) (+): (+) apparent reddening; for Test result (number of subject) (++): (++) more reddened and swollen; for Test result (number of subject) (±): (±) slightly reddish; for Test result (number of subject) (−): (−) no erythema
Protocol: A filter paper disk was placed in an 8 mm diameter, 10 panels of pin chamber.
After 24 hours, the pin chamber was removed, and skin conditions were visually observed. The degree and grade for skin irritation were calculated according to the following Equation 2, and the results are shown in Table 4 below.
[Criteria for Skin Irritation]
(−): No erythema or particularly no symptoms; (±): slightly reddish than the periphery; (+): Apparent reddening than periphery; (++): More reddened and swollen than periphery.
[Grade for Skin Irritation]
Degree of irritation 0-0.1: Grade I (unstimulated);
Degree of irritation 0.11-0.3: Grade II (weakly stimulated);
Degree of irritation 0.31-0.5: Grade III (moderately stimulated);
Degree of irritation 0.51 or more: Grade IV (strongly stimulated)

SMILES	Total amount (Cu, Zn, Mn, Ni, Cd) [1] [ppm]	Formaldehyde GC Area, 30 min [2] [mAU*min]	Formaldehyde GC Area, 180 min [2] [mAU*min]	Formaldehyde GC Area, Initial [2] [mAU*min]	Nickel (Ni) Adsorption amount ([3]; content 0.5% aqueous solution) [ppm]	Nickel (Ni) Adsorption rate ([3]; content 0.5%) [%]	Nickel (Ni) Adsorption amount ([3]; content 1.0% aqueous solution) [ppm]	Nickel (Ni) Adsorption rate ([3]; content 1.0%) [%]	Nickel (Ni) Adsorption amount ([3]; content 2.0% aqueous solution) [ppm]	Nickel (Ni) Adsorption rate ([3]; content 2.0%) [%]	Cadmium (Cd) Adsorption amount ([4]; content 0.5% aqueous solution) [ppm]	Cadmium (Cd) Adsorption rate ([4]; content 0.5%) [%]	Cadmium (Cd) Adsorption amount ([4]; content 1.0% aqueous solution) [ppm]	Cadmium (Cd) Adsorption rate ([4]; content 1.0%) [%]	Cadmium (Cd) Adsorption amount ([4]; content 2.0% aqueous solution) [ppm]	Cadmium (Cd) Adsorption rate ([4]; content 2.0%) [%]	Arsenic (As) Adsorption amount ([5]; content 0.5% aqueous solution) [ppm]	Arsenic (As) Adsorption rate ([5]; content 0.5%) [%]	Arsenic (As) Adsorption amount ([5]; content 1.0% aqueous solution) [ppm]	Arsenic (As) Adsorption rate ([5]; content 1.0%) [%]	other results
O=C(O)c1ccc(N(CCN(CCN(c2ccc(C(=O)O)o2)c2ccc(C(=O)O)o2)c2ccc(C(=O)O)o2)CCN(c2ccc(C(=O)O)o2)c2ccc(C(=O)O)o2)o1 [Embodiment 4, 5,5′,5″,5′″-(((ethane-1,2-diylbis((5-carboxyfuran-2-yl)azanediyl))bis(ethane-2,1-diyl))bis(azanetriyl))tetrakis(furan-2-carboxylic Acid)]	≤5	0.173	0	0.305	91	186	94	192	104	212	67	163	74	180	80	195	53	212	56	224	Arsenic (As) Adsorption amount ([5]; content 2.0% aqueous solution): 56 ppm; Arsenic (As) Adsorption rate ([5]; content 2.0%): 224%; Test result (number of subject) (+) (human skin; content 0.1 wt %): 0; Test result (number of subject) (++) (human skin; content 0.1 wt %): 0; Test result (number of subject) (±) (human skin; content 0.1 wt %): 0; Test result (number of subject) (−) (human skin; content 0.1 wt %): 20; Degree of irritation (human skin; content 0.1 wt %): 0; Grade for skin irritation (human skin; content 0.1 wt %): I (Degree of irritation 0-0.1: Grade I (unstimulated)); Test result (number of subject) (+) (human skin; content 0.5 wt %): 0; Test result (number of subject) (++) (human skin; content 0.5 wt %): 0; Test result (number of subject) (±) (human skin; content 0.5 wt %): 0; Test result (number of subject) (−) (human skin; content 0.5 wt %): 20; Degree of irritation (human skin; content 0.5 wt %): 0; Grade for skin irritation (human skin; content 0.5 wt %): I (Degree of irritation 0-0.1: Grade I (unstimulated)); Test result (number of subject) (+) (human skin; content 1.0 wt %): 0; Test result (number of subject) (++) (human skin; content 1.0 wt %): 0; Test result (number of subject) (±) (human skin; content 1.0 wt %): 1; Test result (number of subject) (−) (human skin; content 1.0 wt %): 19; Degree of irritation (human skin; content 1.0 wt %): 0.05; Grade for skin irritation (human skin; content 1.0 wt %): I (Degree of irritation 0-0.1: Grade I (unstimulated))
O=C(O)CN1CCN(CC(=O)O)CCN(CC(=O)O)CCN(CC(=O)O)CC1 [Embodiment 5, 2,2′,2″,2′″-(1,4,7,10-tetraazacyclododecane-1,4,7,10-tetrayl)tetraacetic Acid]	≤5	0.179	0	0.305	83	169	85	173	89	182	60	146	66	161	74	180	41	164	46	184	Arsenic (As) Adsorption amount ([5]; content 2.0% aqueous solution): 53 ppm; Arsenic (As) Adsorption rate ([5]; content 2.0%): 212%; Test result (number of subject) (+) (human skin; content 0.1 wt %): 0; Test result (number of subject) (++) (human skin; content 0.1 wt %): 0; Test result (number of subject) (±) (human skin; content 0.1 wt %): 0; Test result (number of subject) (−) (human skin; content 0.1 wt %): 20; Degree of irritation (human skin; content 0.1 wt %): 0; Grade for skin irritation (human skin; content 0.1 wt %): I (Degree of irritation 0-0.1: Grade I (unstimulated)); Test result (number of subject) (+) (human skin; content 0.5 wt %): 0; Test result (number of subject) (++) (human skin; content 0.5 wt %): 0; Test result (number of subject) (±) (human skin; content 0.5 wt %): 0; Test result (number of subject) (−) (human skin; content 0.5 wt %): 20; Degree of irritation (human skin; content 0.5 wt %): 0; Grade for skin irritation (human skin; content 0.5 wt %): I (Degree of irritation 0-0.1: Grade I (unstimulated)); Test result (number of subject) (+) (human skin; content 1.0 wt %): 0; Test result (number of subject) (++) (human skin; content 1.0 wt %): 0; Test result (number of subject) (±) (human skin; content 1.0 wt %): 1; Test result (number of subject) (−) (human skin; content 1.0 wt %): 19; Degree of irritation (human skin; content 1.0 wt %): 0.05; Grade for skin irritation (human skin; content 1.0 wt %): I (Degree of irritation 0-0.1: Grade I (unstimulated))
